Measured values taken from patent US5919771A, “Urea and thiourea derivatives of glycopeptides” (Eli Lilly and Company, priority 1998, dated 1999).

Tests used:
Assay type in all cases: cell-based
[1] = tested on: Staphylococcus aureus 446; test: MIC, standard broth micro-dilution assay, SA 446
Procedure: (§1) The antibacterial efficacy of the present compounds is illustrated by Table II. The minimal inhibitory concentrations (MICs) were determined using a standard broth micro-dilution assay.

[2] = tested on: Staphylococcus haemolyticus 105; test: MIC, standard broth micro-dilution assay, SH 105
Procedure: as §1

[3] = tested on: Streptococcus pyogenes C203; test: MIC, standard broth micro-dilution assay, SPY C203
Procedure: as §1

[4] = tested on: Staphylococcus haemolyticus 415; test: MIC, standard broth micro-dilution assay, SH 415
Procedure: as §1

[5] = tested on: Staphylococcus aureus 489; test: MIC, standard broth micro-dilution assay, SA 489
Procedure: as §1

[6] = tested on: Enterococcus faecium and faecalis (RESISTANT); details: geometric mean of 4-6 isolates
Procedure: as §1

[7] = tested on: Enterococcus faecium and faecalis (SENSITIVE); details: geometric mean of 4-6 isolates
Procedure: as §1

[8] = tested on: Staphylococcus aureus 447; test: MIC, standard broth micro-dilution assay, SA 447
Procedure: as §1

[9] = tested on: Streptococcus pneumoniae P1; test: MIC, standard broth micro-dilution assay, SPN P1
Procedure: as §1

[10] = tested on: Staphylococcus epidermidis 270; test: MIC, standard broth micro-dilution assay, SE 270
Procedure: as §1

| SMILES | Minimal Inhibitory Concentration (MIC) SA 446 [1] | Minimal Inhibitory Concentration (MIC) SH 105 [2] | Minimal Inhibitory Concentration (MIC) SPY C203 [3] | Minimal Inhibitory Concentration (MIC) SH 415 [4] | Minimal Inhibitory Concentration (MIC) SA 489 [5] | Minimal Inhibitory Concentration (MIC) RESISTANT [6] | Minimal Inhibitory Concentration (MIC) SENSITIVE [7] | Minimal Inhibitory Concentration (MIC) SA 447 [8] | Minimal Inhibitory Concentration (MIC) SPN P1 [9] | Minimal Inhibitory Concentration (MIC) SE 270 [10] |
| --- | --- | --- | --- | --- | --- | --- | --- | --- | --- | --- |
| CC(C)CC(C(=O)NC1C(=O)NC(CC(N)=O)C(=O)NC2C(=O)NC3C(=O)NC(C(=O)NC(C(=O)O)c4cc(O)cc(O)c4-c4cc3ccc4O)C(OC3CC(C)(N)C(O)C(C)O3)c3ccc(c(Cl)c3)Oc3cc2cc(c3OC2OC(CO)C(O)C(O)C2OC2CC(C)(N)C(O)C(C)O2)Oc2ccc(cc2Cl)C1O)N(C)C(=S)Nc1ccccc1 (centres unmarked) [Example 1, N^LEU -(PHENYLTHIOCARBAMOYL)A82846B] | 8 | 64 | 2 | > 64 | 4 | > 128 | 16 | 8 | 2 | 8 |
| CC(C)C[C@H](C(=O)N[C@H]1C(=O)N[C@@H](CC(N)=O)C(=O)N[C@H]2C(=O)N[C@H]3C(=O)N[C@H](C(=O)N[C@H](C(=O)O)c4cc(O)cc(O)c4-c4cc3ccc4O)[C@H](O[C@H]3C[C@](C)(N)[C@@H](O)[C@H](C)O3)c3ccc(c(Cl)c3)Oc3cc2cc(c3O[C@@H]2O[C@H](CO)[C@@H](O)[C@H](O)[C@H]2O[C@H]2C[C@](C)(NCc3ccc(Cl)cc3)[C@@H](O)[C@H](C)O2)Oc2ccc(cc2Cl)[C@H]1O)N(C)C(=S)Nc1ccccc1 [Example 2, N^LEU -(PHENYLTHIOCARBAMOYL)-N^DISACC -(p-CHLOROBENZYL)A82846B] | 2 | 8 | 0.125 | 16 | 2 | 128 | 3.4 | 2 | 0.25 | 4 |
| CC(C)C[C@H](C(=O)N[C@H]1C(=O)N[C@@H](CC(N)=O)C(=O)N[C@H]2C(=O)N[C@H]3C(=O)N[C@H](C(=O)N[C@H](C(=O)O)c4cc(O)cc(O)c4-c4cc3ccc4O)[C@H](O[C@H]3C[C@](C)(N)[C@@H](O)[C@H](C)O3)c3ccc(c(Cl)c3)Oc3cc2cc(c3O[C@@H]2O[C@H](CO)[C@@H](O)[C@H](O)[C@H]2O[C@H]2C[C@](C)(NCc3ccc(Oc4ccccc4)cc3)[C@@H](O)[C@H](C)O2)Oc2ccc(cc2Cl)[C@H]1O)N(C)C(=S)Nc1ccccc1 [Example 3, N^LEU -(PHENYLTHIOCARBAMOYL)-N^DISACC -(p-PHENOXYBENZYL)-A82846B] | 4 | 2 | ≤ .06 | 2 | 2 | 16 | 1.7 | 1 |  | 1 |
| CC(C)C[C@H](C(=O)N[C@H]1C(=O)N[C@@H](CC(N)=O)C(=O)N[C@H]2C(=O)N[C@H]3C(=O)N[C@H](C(=O)N[C@H](C(=O)O)c4cc(O)cc(O)c4-c4cc3ccc4O)[C@H](O[C@H]3C[C@](C)(N)[C@@H](O)[C@H](C)O3)c3ccc(c(Cl)c3)Oc3cc2cc(c3O[C@@H]2O[C@H](CO)[C@@H](O)[C@H](O)[C@H]2O[C@H]2C[C@](C)(NCc3ccc(-c4ccccc4)cc3)[C@@H](O)[C@H](C)O2)Oc2ccc(cc2Cl)[C@H]1O)N(C)C(=S)Nc1ccccc1 [Example 4, N^LEU -(PHENYLTHIOCARBAMOYL)-N^DISACC -(p-PHENYLBENZYL)A82846B] | 2 | 2 | ≤ 0.06 | 1 | 0.125 | 14 | 4 | 1 | 0.125 | 0.5 |
| CC(C)CC(C(=O)NC1C(=O)NC(CC(N)=O)C(=O)NC2C(=O)NC3C(=O)NC(C(=O)NC(C(=O)O)c4cc(O)cc(O)c4-c4cc3ccc4O)C(OC3CC(C)(N)C(O)C(C)O3)c3ccc(c(Cl)c3)Oc3cc2cc(c3OC2OC(CO)C(O)C(O)C2OC2CC(C)(N)C(O)C(C)O2)Oc2ccc(cc2Cl)C1O)N(C)C(=S)Nc1ccc(Cl)cc1 (centres unmarked) [Example 8, N^LEU -((p-CHLOROPHENYL)-THIOCARBAMOYL)A82846B] | 2 | 16 |  | 64 | 2 | > 128 | 8 | 4 |  | 8 |
| COc1ccc(NC(=S)N(C)C(CC(C)C)C(=O)NC2C(=O)NC(CC(N)=O)C(=O)NC3C(=O)NC4C(=O)NC(C(=O)NC(C(=O)O)c5cc(O)cc(O)c5-c5cc4ccc5O)C(OC4CC(C)(N)C(O)C(C)O4)c4ccc(c(Cl)c4)Oc4cc3cc(c4OC3OC(CO)C(O)C(O)C3OC3CC(C)(N)C(O)C(C)O3)Oc3ccc(cc3Cl)C2O)cc1 (centres unmarked) [Example 9, N^LEU -((p-METHOXYPHENYL)-THIOCARBAMOYL)A82846B] | 8 | 32 |  | 32 | 4 | > 128 | 21 | 8 |  | 16 |
| CC(C)CC(C(=O)NC1C(=O)NC(CC(N)=O)C(=O)NC2C(=O)NC3C(=O)NC(C(=O)NC(C(=O)O)c4cc(O)cc(O)c4-c4cc3ccc4O)C(OC3CC(C)(N)C(O)C(C)O3)c3ccc(c(Cl)c3)Oc3cc2cc(c3OC2OC(CO)C(O)C(O)C2OC2CC(C)(NCc3ccc(Oc4ccccc4)cc3)C(O)C(C)O2)Oc2ccc(cc2Cl)C1O)N(C)C(=S)Nc1ccc(Cl)cc1 (centres unmarked) [Example 10, N^LEU -((p-CHLOROPHENYL)-THIOCARBAMOYL)-N^DISACC -(p-PHENOXYBENZYL)A82846B] | 4 | 1 |  | 2 | 2 | 9.5 | 1.7 | 2 |  | 2 |
| COc1ccc(NC(=S)N(C)C(CC(C)C)C(=O)NC2C(=O)NC(CC(N)=O)C(=O)NC3C(=O)NC4C(=O)NC(C(=O)NC(C(=O)O)c5cc(O)cc(O)c5-c5cc4ccc5O)C(OC4CC(C)(N)C(O)C(C)O4)c4ccc(c(Cl)c4)Oc4cc3cc(c4OC3OC(CO)C(O)C(O)C3OC3CC(C)(NCc4ccc(Oc5ccccc5)cc4)C(O)C(C)O3)Oc3ccc(cc3Cl)C2O)cc1 (centres unmarked) [Example 11, N^LEU -((p-METHOXYPHENYL)-THIOCARBAMOYL)-N^DISACC -(p-PHENOXYBENZYL)A82846B] | 4 | 1 |  | 2 | 2 | 38 | 2.6 | 2 |  | 2 |
| CCCCc1ccc(CNC2(C)CC(OC3C(Oc4c5cc6cc4Oc4ccc(cc4Cl)C(OC4CC(C)(N)C(O)C(C)O4)C4NC(=O)C(NC(=O)C6NC(=O)C(CC(N)=O)NC(=O)C(NC(=O)C(CC(C)C)N(C)C(=S)Nc6ccccc6)C(O)c6ccc(c(Cl)c6)O5)c5ccc(O)c(c5)-c5c(O)cc(O)cc5C(C(=O)O)NC4=O)OC(CO)C(O)C3O)OC(C)C2O)cc1 (centres unmarked) [Example 21, N^LEU -(PHENYLTHIOCARBAMOYL)-N^DISACC -(p-n-BUTYLBENZYL)-A82846B] |  |  |  |  |  | 32 | 2.6 |  |  |  |
| CC(C)CC(C(=O)NC1C(=O)NC(CC(N)=O)C(=O)NC2C(=O)NC3C(=O)NC(C(=O)NC(C(=O)O)c4cc(O)cc(O)c4-c4cc3ccc4O)C(OC3CC(C)(N)C(O)C(C)O3)c3ccc(c(Cl)c3)Oc3cc2cc(c3OC2OC(CO)C(O)C(O)C2OC2CC(C)(N)C(O)C(C)O2)Oc2ccc(cc2Cl)C1O)N(C)C(=O)Nc1ccccc1 (centres unmarked) [Example 23, N^LEU -(PHENYLCARBAMOYL)A82846B] | 4 | 0.5 |  | 64 | 1 | > 128 | 5.3 | 4 |  | 4 |
| CC(C)CC(C(=O)NC1C(=O)NC(CC(N)=O)C(=O)NC2C(=O)NC3C(=O)NC(C(=O)NC(C(=O)O)c4cc(O)cc(O)c4-c4cc3ccc4O)C(OC3CC(C)(N)C(O)C(C)O3)c3ccc(c(Cl)c3)Oc3cc2cc(c3OC2OC(CO)C(O)C(O)C2OC2CC(C)(NCc3ccc(Oc4ccccc4)cc3)C(O)C(C)O2)Oc2ccc(cc2Cl)C1O)N(C)C(=O)Nc1ccccc1 (centres unmarked) [Example 24, N^LEU -(PHENYLCARBAMOYL)-N^DISACC -(p-PHENOXYBENZYL)A82846B] | 2 | 0.25 |  | 1 | 1 | 16 | 0.87 | 1 |  | 1 |
